Reference: patent US20050209278A1, “Piperidinyl- and piperazinyl-sulfonylmethyl hydroxamic acids and their use as protease inhibitors” (priority 2002, published 2005)

Tests used:
[1] = molecular target: T1, MMP-9 (Homo sapiens, UniProt P14780); experiment: In vitro MMP inhibition, Ki determination (fluorogenic substrate II); format: biochemical; settings: value outside parentheses
T1 construct: made in house; host or cells: MMP-9-transfected HT1080 cells (spent media)
In short: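 HT1080-derived MMP-9, activated with APMA, trypsin or MMP-3, incubated 1 hr at room temperature with inhibitor and 4 μM fluorogenic substrate II (at or below Km) in pH 7.5 Tris/NaCl/CaCl2 buffer; ex 330/em 420 nm. Ki from Morrison-equation regression, without substrate correction.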

[2] = molecular target: T2, MMP-14 (Homo sapiens, UniProt P50281); experiment: as above; format: biochemical; settings: value outside parentheses; read-out: MMP-14 Ki
T2 construct: The catalytic domain enzyme was expressed in E. coli inclusion bodies, solubilized in urea; made in house
In short: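 Apparent Ki was fitted with Morrison's equation from reaction rates at a single low enzyme level. Enzyme was APMA- or trypsin-activated refolded MMP-14 catalytic domain, buffered at pH 7.5 with 10 mM CaCl2.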

T1 sequence (P14780 107-707 limits assumed): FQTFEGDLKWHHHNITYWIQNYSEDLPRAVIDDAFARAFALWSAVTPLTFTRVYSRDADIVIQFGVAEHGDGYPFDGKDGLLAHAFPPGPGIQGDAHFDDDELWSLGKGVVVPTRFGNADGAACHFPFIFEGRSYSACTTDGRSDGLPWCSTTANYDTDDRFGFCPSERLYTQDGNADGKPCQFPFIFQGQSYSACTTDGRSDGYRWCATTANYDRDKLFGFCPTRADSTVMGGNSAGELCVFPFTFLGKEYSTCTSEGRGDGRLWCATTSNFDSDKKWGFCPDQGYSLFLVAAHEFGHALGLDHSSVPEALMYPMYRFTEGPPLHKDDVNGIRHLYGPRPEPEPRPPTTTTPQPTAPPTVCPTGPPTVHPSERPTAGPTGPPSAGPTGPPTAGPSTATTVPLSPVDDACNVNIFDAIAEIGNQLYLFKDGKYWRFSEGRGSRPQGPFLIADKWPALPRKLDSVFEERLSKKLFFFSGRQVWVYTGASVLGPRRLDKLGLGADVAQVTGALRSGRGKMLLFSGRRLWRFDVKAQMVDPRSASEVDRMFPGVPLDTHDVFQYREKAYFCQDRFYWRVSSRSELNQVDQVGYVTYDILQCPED

`CCCCOc1ccc(N2CCN(S(=O)(=O)C3(C(=O)NO)CCN(c4ccc(O)nn4)CC3)CC2)cc1` [Example 283] showed a Ki [1] of 0.69 nM and a Ki [2] of 549 nM.
`CCCCOc1ccc(N2CCN(S(=O)(=O)C3(C(=O)NO)CCN(CCOC)CC3)CC2)c(F)c1` [Example 284] was tested, and the Ki [1] was 0.99 nM and the Ki [2] was 2770 nM.
For `CCCCOc1ccc(N2CCN(S(=O)(=O)C3(C(=O)NO)CCN(Cc4ccccc4)CC3)CC2)cc1F` [Example 285], the Ki [1] was 9.83 nM and the Ki [2] was > 10000 nM.
`CCCCOc1ccc(N2CCN(S(=O)(=O)C3(C(=O)NO)CCNCC3)CC2)cc1F` [Example 286] was tested, and the Ki [1] was 22.3 nM and the Ki [2] was > 10000 nM.
With `COCCN1CCC(C(=O)NO)(S(=O)(=O)N2CCN(c3ccc(Oc4ccccc4)cc3)CC2)CC1` [Example 287] the Ki [1] was 13.9 nM and the Ki [2] was 6940 nM.
In the case of `CCCCOc1ccc(N2CCN(S(=O)(=O)C3(C(=O)NO)CCN(C(=O)CN)CC3)CC2)cc1` [Example 292], the Ki [1] is reported as 3.51 nM and the Ki [2] is reported as 6540 nM.
`CCCCOc1ccc(N2CCN(S(=O)(=O)C3(C(=O)NO)CCN(Cc4cccnc4)CC3)CC2)cc1F` [Example 293] showed a Ki [1] of 2.21 nM and a Ki [2] of 5440 nM.
With `CCCCOc1ccc(N2CCN(S(=O)(=O)C3(C(=O)NO)CCN(c4ccc(C)cc4)CC3)CC2)cc1` [Example 295] the Ki [1] was 17.1 nM and the Ki [2] was 8650 nM.
For `CCCCOc1ccc(N2CCN(S(=O)(=O)C3(C(=O)NO)CCN(CC4CC4)CC3)CC2)cc1` [Example 298], the Ki [1] was 2.99 nM and the Ki [2] was > 10000 nM.
With `Cc1cc(N2CCN(S(=O)(=O)C3(C(=O)NO)CCOCC3)CC2)ccc1OC(C)C` [Example 299] the Ki [1] was 43.6 nM and the Ki [2] was > 10000 nM.
For `CS(=O)(=O)c1ccc(N2CCN(S(=O)(=O)C3(C(=O)NO)CCOCC3)CC2)cc1` [Example 300], the Ki [1] was 142 nM and the Ki [2] was > 10000 nM.
`C#CCN1CCC(C(=O)NO)(S(=O)(=O)N2CCN(c3ccc(OCCCC)cc3)CC2)CC1` [Example 303] showed a Ki [1] of 1.48 nM and a Ki [2] of 5000 nM.
Molecule `CCCCCc1ccc(C2CCN(S(=O)(=O)C3(C(=O)NO)CCOCC3)CC2)nc1` [Example 305] has a Ki [1] of 0.133 nM and a Ki [2] of 645 nM.
With `O=C(NO)C1(S(=O)(=O)N2CCC(c3ccc(Br)cn3)CC2)CCOCC1` [Example 306] the Ki [1] was 1.03 nM and the Ki [2] was 31.7 nM.
With `O=C(NO)C1(S(=O)(=O)N2CCC(c3ccc(-c4ccc(F)cc4F)cn3)CC2)CCOCC1` [Example 308] the Ki [1] was 11.3 nM and the Ki [2] was 1040 nM.
With `COCCN1CCC(C(=O)NO)(S(=O)(=O)N2CCC(c3ccc(CCC(F)(F)F)cc3)CC2)CC1` [Example 309] the Ki [1] was 0.102 nM and the Ki [2] was 1440 nM.
Molecule `COCCN1CCC(C(=O)NO)(S(=O)(=O)N2CCC(c3ccc(CCCC(F)(F)F)cc3)CC2)CC1` [Example 310] has a Ki [1] of 0.346 nM and a Ki [2] of 4820 nM.
For `COCCN1CCC(C(=O)NO)(S(=O)(=O)N2CCC(c3ncc(CC(C)C)s3)CC2)CC1` [Example 311], the Ki [1] was 35.7 nM and the Ki [2] was > 10000 nM.
For `COCCN1CCC(C(=O)NO)(S(=O)(=O)N2CCC(c3ccc(CCC(F)(F)C(F)(F)F)cc3)CC2)CC1` [Example 312], the Ki [1] was 0.24 nM and the Ki [2] was 2040 nM.
